Data: patent US6495557B1, “Condensed thienopyrimidines with phosphodiesterase-v inhibiting action” (Merck Patent Gesellschaft mit beschraenkter Haftung, priority 1998, dated 2002)

| SMILES | melting point [°C] |
| --- | --- |
| COc1ccc(CNc2nc(CCC(=O)O)nc3sc4ccccc4c23)cc1Cl [Example 2, 3-[4-(3-chloro-4-methoxybenzylamino)benzothieno[2,3-d]pyrimidin-2-yl]propionic acid] | 218 |
| COC(=O)c1ccc(-c2nc(NCc3ccc(OC)c(Cl)c3)c3c(n2)sc2ccccc23)cc1 [Example 3, methyl 4-[4-(3-chloro-4-methoxybenzylamino)-[1]benzothieno[2,3-d]pyrimidin-2-yl]benzoate] | 203 to 204 |
